Assay results from article PMC4940736 (Scientific Reports, 2016).

Columns and labels:
[1] = target: EBOV NP (amino acids 36–351) (Zaire ebolavirus, UniProt P18272); assay type: binding, Ebola virus
[2] = target: MARV NP (amino acids 19–370) (Lake Victoria marburgvirus, UniProt P27588); assay type: binding, Marburg virus
Sequence of MARV NP (amino acids 19–370) (P27588 19-370 limits assumed): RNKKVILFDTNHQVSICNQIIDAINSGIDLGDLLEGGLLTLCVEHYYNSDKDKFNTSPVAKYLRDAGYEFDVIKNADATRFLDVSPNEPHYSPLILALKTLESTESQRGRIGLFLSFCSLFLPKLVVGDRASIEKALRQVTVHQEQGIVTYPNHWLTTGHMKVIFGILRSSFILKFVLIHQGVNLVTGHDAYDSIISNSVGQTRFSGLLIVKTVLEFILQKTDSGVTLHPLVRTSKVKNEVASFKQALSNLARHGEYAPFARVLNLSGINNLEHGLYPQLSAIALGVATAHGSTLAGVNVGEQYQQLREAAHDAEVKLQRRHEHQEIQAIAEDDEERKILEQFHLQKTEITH

Sequence of EBOV NP (amino acids 36–351) (P18272 36-351 limits assumed): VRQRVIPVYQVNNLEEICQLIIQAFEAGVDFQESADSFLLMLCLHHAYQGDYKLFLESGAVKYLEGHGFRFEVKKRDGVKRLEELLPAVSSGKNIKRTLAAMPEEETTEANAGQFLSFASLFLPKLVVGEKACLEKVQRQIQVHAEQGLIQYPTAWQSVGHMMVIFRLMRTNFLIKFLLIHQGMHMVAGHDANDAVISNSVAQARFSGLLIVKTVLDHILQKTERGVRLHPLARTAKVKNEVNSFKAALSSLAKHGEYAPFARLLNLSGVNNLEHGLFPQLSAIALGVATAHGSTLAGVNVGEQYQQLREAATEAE

Row | Molecule | S/N AVE [1] | VIP [1] | S/N AVE [2] | VIP [2] | putative ligand in licorice crude extract screen [1] | putative ligand in licorice crude extract screen [2]
1 | O=C(/C=C/c1ccc(O[C@@H]2O[C@H](CO)[C@@H](O)[C@H](O)[C@H]2O)cc1)c1ccc(O)cc1O [GC14, Isoliquiritin] | 1.22 | 1.29 | 1.73 | 2.12 |  | 
2 | O=C1C[C@@H](c2ccc(O)cc2)Oc2cc(O)ccc21 [GC8, Liquiritigenin] | 1.04 | 0.47 | 1.50 | 0.65 |  | 
3 | COc1ccc(-c2coc3cc(O[C@@H]4O[C@H](CO)[C@@H](O)[C@H](O)[C@H]4O)ccc3c2=O)cc1 [GC5, Ononin] | 1.46 | 1.09 | 1.76 | 1.28 |  | 
4 | glycyrrhetinic acid [GC7/10] |  | 1.44 |  |  | met the aforementioned thresholds | met the aforementioned thresholds
5 | C=CC(C)(C)c1cc(/C=C/C(=O)c2ccc(O)cc2)c(OC)cc1O [GC13, Licochalcone A] | 5.17 | 2.27 | 6.85 | 2.03 | met the aforementioned thresholds | met the aforementioned thresholds
6 | O=C(/C=C/c1ccc(O)cc1)c1ccc(O[C@@H]2O[C@H](CO)[C@@H](O)[C@H](O)[C@H]2O)cc1O [GC4, Neoisoliquiritin] | 1.58 | 1.18 | 1.72 | 1.31 |  | 
7 | O=c1cc(-c2ccc(O)cc2)oc2c([C@@H]3OC[C@H](O)[C@H](O)[C@H]3O)c(O)c([C@@H]3O[C@H](CO)[C@@H](O)[C@H](O)[C@H]3O)c(O)c12 [GC3, Schaftoside] | 1.11 | 0.60 | 1.62 | 1.60 |  | 
8 | CC1(C)[C@@H](O[C@H]2O[C@H](C(=O)O)[C@@H](O)[C@H](O)[C@H]2O[C@@H]2O[C@H](C(=O)O)[C@@H](O)[C@H](O)[C@H]2O)CC[C@]2(C)[C@H]3C(=O)C=C4[C@@H]5C[C@@](C)(C(=O)O)CC[C@]5(C)CC[C@@]4(C)[C@]3(C)CC[C@@H]12 [GC6, Glycyrrhizin] | 1.15 | 5.23 | 0.96 | 1.39 | did not observe its direct binding | did not observe its direct binding
9 | COc1ccc(-c2coc3cc(O)ccc3c2=O)cc1O [GC9, Calycosin] | 1.01 | 0.14 | 1.36 | 0.16 |  | 
